Source: PubChem BioAssay (NCI)
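Assay format: 96-well plates, 48-hour exposure. TGI: total growth inhibition.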

Tests used:
Assay in all cases: growth of human tumour cells (NCI), 48 h
786-0 renal = test system: 786-0 renal
A549 NSCLC = test system: A549 NSCLC
CAKI-1 renal = test system: CAKI-1 renal
CCRF-CEM leukemia = test system: CCRF-CEM leukemia
DU-145 prostate = test system: DU-145 prostate
EKVX NSCLC = test system: EKVX NSCLC
HCC-2998 colon = test system: HCC-2998 colon
HCT-15 colon = test system: HCT-15 colon
HL-60(TB) leukemia = test system: HL-60(TB) leukemia
HOP-62 NSCLC = test system: HOP-62 NSCLC
HOP-92 NSCLC = test system: HOP-92 NSCLC
HT29 colon = test system: HT29 colon
IGROV1 ovarian = test system: IGROV1 ovarian
K-562 leukemia = test system: K-562 leukemia
KM12 colon = test system: KM12 colon
LOX IMVI melanoma = test system: LOX IMVI melanoma
MALME-3M melanoma = test system: MALME-3M melanoma
MCF7 breast = test system: MCF7 breast
MDA-MB-231 breast = test system: MDA-MB-231 breast
MDA-MB-435 = test system: MDA-MB-435
MDA-N = test system: MDA-N
MOLT-4 leukemia = test system: MOLT-4 leukemia
NCI-H23 lung = test system: NCI-H23 lung
OVCAR-4 ovarian = test system: OVCAR-4 ovarian
OVCAR-8 ovarian = test system: OVCAR-8 ovarian
PC-3 prostate = test system: PC-3 prostate
RPMI-8226 leukemia = test system: RPMI-8226 leukemia
RXF 393 renal = test system: RXF 393 renal
SF-268 CNS = test system: SF-268 CNS
SF-295 CNS = test system: SF-295 CNS
SK-MEL-5 melanoma = test system: SK-MEL-5 melanoma
SK-OV-3 ovarian = test system: SK-OV-3 ovarian
SN12C renal = test system: SN12C renal
SNB-75 CNS = test system: SNB-75 CNS
SR leukemia = test system: SR leukemia
SW-620 colon = test system: SW-620 colon
T-47D breast = test system: T-47D breast
TK-10 renal = test system: TK-10 renal
UACC-257 melanoma = test system: UACC-257 melanoma
A498 renal = test system: A498 renal
ACHN renal = test system: ACHN renal
BT-549 breast = test system: BT-549 breast
COLO 205 colon = test system: COLO 205 colon
HCT-116 colon = test system: HCT-116 colon
HS 578T breast = test system: HS 578T breast
M14 melanoma = test system: M14 melanoma
NCI-H226 lung = test system: NCI-H226 lung
NCI-H460 lung = test system: NCI-H460 lung
NCI-H522 lung = test system: NCI-H522 lung
NCI/ADR-RES ovarian = test system: NCI/ADR-RES ovarian
OVCAR-3 ovarian = test system: OVCAR-3 ovarian
OVCAR-5 ovarian = test system: OVCAR-5 ovarian
SF-539 CNS = test system: SF-539 CNS
SK-MEL-2 melanoma = test system: SK-MEL-2 melanoma
SK-MEL-28 melanoma = test system: SK-MEL-28 melanoma
SNB-19 CNS = test system: SNB-19 CNS
U251 CNS = test system: U251 CNS
UACC-62 melanoma = test system: UACC-62 melanoma
UO-31 renal = test system: UO-31 renal

SMILES: CCN(CC)CCN1CCNc2c3cc(OC)ccc3nc3c([N+](=O)[O-])ccc1c23
- TGI (786-0 renal): 1.61 µM
- TGI (A549 NSCLC): 9.07 µM
- TGI (CAKI-1 renal): > 10 µM
- TGI (CCRF-CEM leukemia): 2.32 µM
- TGI (DU-145 prostate): > 10 µM
- TGI (EKVX NSCLC): 4.68 µM
- TGI (HCC-2998 colon): 2.03 µM
- TGI (HCT-15 colon): 2.47 µM
- TGI (HL-60(TB) leukemia): 2.12 µM
- TGI (HOP-62 NSCLC): 2.64 µM
- TGI (HOP-92 NSCLC): 6.18 µM
- TGI (HT29 colon): 6.39 µM
- TGI (IGROV1 ovarian): 9.25 µM
- TGI (K-562 leukemia): > 10 µM
- TGI (KM12 colon): 6.21 µM
- TGI (LOX IMVI melanoma): 3.21 µM
- TGI (MALME-3M melanoma): 3.23 µM
- TGI (MCF7 breast): 2.98 µM
- TGI (MDA-MB-231 breast): 2.23 µM
- TGI (MDA-MB-435): 2.69 µM
- TGI (MDA-N): 2.27 µM
- TGI (MOLT-4 leukemia): 1.42 µM
- TGI (NCI-H23 lung): 2.44 µM
- TGI (OVCAR-4 ovarian): 3.12 µM
- TGI (OVCAR-8 ovarian): > 10 µM
- TGI (PC-3 prostate): 2.25 µM
- TGI (RPMI-8226 leukemia): 2.87 µM
- TGI (RXF 393 renal): 2.11 µM
- TGI (SF-268 CNS): > 10 µM
- TGI (SF-295 CNS): 4.28 µM
- TGI (SK-MEL-5 melanoma): 2.92 µM
- TGI (SK-OV-3 ovarian): > 10 µM
- TGI (SN12C renal): 2.36 µM
- TGI (SNB-75 CNS): 6.43 µM
- TGI (SR leukemia): 1.19 µM
- TGI (SW-620 colon): 5.4 µM
- TGI (T-47D breast): > 10 µM
- TGI (TK-10 renal): > 10 µM
- TGI (UACC-257 melanoma): 5.7 µM

SMILES: CCOC(=O)c1cccc(NC(=O)CBr)c1
- TGI (786-0 renal): 0.494 µM
- TGI (A498 renal): 14.7 µM
- TGI (A549 NSCLC): 3.96 µM
- TGI (ACHN renal): 3.09 µM
- TGI (BT-549 breast): 4.15 µM
- TGI (CAKI-1 renal): 1.16 µM
- TGI (COLO 205 colon): 3.29 µM
- TGI (DU-145 prostate): 3.39 µM
- TGI (EKVX NSCLC): 3.47 µM
- TGI (HCC-2998 colon): 5.28 µM
- TGI (HCT-116 colon): 1.88 µM
- TGI (HCT-15 colon): 3.66 µM
- TGI (HL-60(TB) leukemia): 3.58 µM
- TGI (HOP-62 NSCLC): 3.41 µM
- TGI (HOP-92 NSCLC): 4.14 µM
- TGI (HS 578T breast): 5.28 µM
- TGI (HT29 colon): 3.32 µM
- TGI (IGROV1 ovarian): 2.77 µM
- TGI (K-562 leukemia): 1.63 µM
- TGI (KM12 colon): 3.58 µM
- TGI (LOX IMVI melanoma): 0.407 µM
- TGI (M14 melanoma): 2.75 µM
- TGI (MALME-3M melanoma): 4.22 µM
- TGI (MCF7 breast): 3.3 µM
- TGI (MDA-MB-231 breast): 3.51 µM
- TGI (MDA-MB-435): 2.51 µM
- TGI (MDA-N): 2.82 µM
- TGI (MOLT-4 leukemia): 1.29 µM
- TGI (NCI-H226 lung): 2.8 µM
- TGI (NCI-H23 lung): 2.77 µM
- TGI (NCI-H460 lung): 3.46 µM
- TGI (NCI-H522 lung): 0.0437 µM
- TGI (NCI/ADR-RES ovarian): 4.39 µM
- TGI (OVCAR-3 ovarian): 3.34 µM
- TGI (OVCAR-4 ovarian): 3.73 µM
- TGI (OVCAR-5 ovarian): 3.28 µM
- TGI (OVCAR-8 ovarian): > 21.6 µM
- TGI (PC-3 prostate): 2.94 µM
- TGI (RPMI-8226 leukemia): 3.74 µM
- TGI (RXF 393 renal): 3.24 µM
- TGI (SF-295 CNS): 14.6 µM
- TGI (SF-539 CNS): 2.6 µM
- TGI (SK-MEL-2 melanoma): 3.2 µM
- TGI (SK-MEL-28 melanoma): 7.75 µM
- TGI (SK-MEL-5 melanoma): 2.76 µM
- TGI (SK-OV-3 ovarian): 3.43 µM
- TGI (SN12C renal): 0.907 µM
- TGI (SNB-19 CNS): 16.6 µM
- TGI (SNB-75 CNS): 3.31 µM
- TGI (SR leukemia): 0.521 µM
- TGI (SW-620 colon): 1.66 µM
- TGI (TK-10 renal): 3.18 µM
- TGI (U251 CNS): 1.89 µM
- TGI (UACC-257 melanoma): 3.86 µM
- TGI (UACC-62 melanoma): 2.92 µM
- TGI (UO-31 renal): 1.96 µM
